The source of these data is patent publication US20180084779A1, “PLANT DISEASE CONTROL AGENT AND USE THEREOF” (NIHON NOHYAKU CO., LTD., priority 2015, published 2018).

Assay [1] has as its system Septoria tritici, KUK-1-21 Strain. In words: Test for wheat leaf blotch, fluoroimide and/or SDHI agent sprayed on wheat pots, lesion area index 21 days after inoculation. Format: in vivo. The following applies: for Control effect Combination with fluoroimide / Control effect SDHI alone: 21 days; for Control effect SDHI alone: fluoroimide 0 ppm; for Controlling Effect as single agent: wheat, 21 days after inoculation. On the procedure: (§1) Control effect (%)=[(Disease index of no treatment area−Disease index of treatment area)/Disease index of no treatment area]×100 [Formula 1]
(§2) The expected effect (expected value E) by using an active ingredient in combination with each of other active ingredients in the above tests was determined by the following Colby formula (see COLBY, S. R., Weeds 15: 20-22 (1967)).
(§3) E(Expected effect)=(X+Y)−(X×Y/100) [Formula 2]
(§4) Test for Wheat Leaf Blotch (Septoria tritici, KUK-1-21 Strain):
Agrochemical liquids containing a predetermined concentration of fluoroimide and/or a predetermined concentration of each SDHI agent were applied to wheat in a predetermined amount with a spray gun. After air drying, a suspension of fungus spore of Septoria tritici adjusted to 1.0×10^7 spores/ml was inoculated by spraying. After that, the wheat pots were kept in a growth chamber under a light condition of at 15° C. 100% RH to encourage the development of the disease. Twenty-one days after the inoculation, the lesion area index (0-10) was set and the controlling effects and expected values are examined in the same manner as Example 1.

For assay [2] the test system is unchanged. In words: Test for wheat leaf blotch, fluoroimide and/or DMI agent sprayed on wheat pots, lesion area index 17 days after inoculation. Format: in vivo. The following applies: wheat, 17 days after inoculation. Here is the method:
as §4
Agrochemical liquids containing a predetermined concentration of fluoroimide and/or a predetermined concentration of each DMI agent were applied to wheat in a predetermined amount with a spray gun. After air drying, a suspension of fungus spore of Septoria tritici adjusted to 1.0×10^7 spores/ml was inoculated by spraying. After that, the wheat pots were kept in a growth chamber under a light condition of at 15° C. 100% RH to encourage the development of the disease. Seventeen days after the inoculation, the lesion area index (0-10) was determined for the evaluation of the control effect.
as §1, §2, §3
X=controlling effect of fungicide A alone
Y=controlling effect of fungicide B alone

The mark [3] stands for this setting: SDHI agent 1 ppm + fluoroimide 50 ppm.
The mark [4] stands for this setting: SDHI agent 1 ppm + fluoroimide 100 ppm.
[5] abbreviates: SDHI agent 3 ppm + fluoroimide 50 ppm.
Setting [6] is: SDHI agent 3 ppm + fluoroimide 100 ppm.
The mark [7] stands for this setting: SDHI agent 10 ppm + fluoroimide 50 ppm.
Where [8] appears, read: SDHI agent 10 ppm + fluoroimide 100 ppm.

Take `Cn1cc(C(=O)Nc2ccccc2-c2cc(F)c(F)c(F)c2)c(C(F)F)n1` [fluxapyroxad]: the “Control effect Expected value (Colby)” value in assay [1] (setting [3]) is recorded as 5%; in assay [1] (setting [4]) it was 25%; in assay [1] (setting [5]), 95%; in assay [1] (setting [6]) it was 96%; in assay [1] (setting [7]), 100%; in assay [1] (setting [8]) it was 100%. Also, the “Control effect Combination with fluoroimide” value (“Control effect Combination” below) was determined as 15% in assay [1] (setting [3]); 50% in assay [1] (setting [4]); 90% in assay [1] (setting [5]); 100% in assay [1] (setting [6]); 100% in assay [1] (setting [7]); 100% in assay [1] (setting [8]). Also, the figures for the “Control effect SDHI alone” value in assay [1] (SDHI agent 1 ppm), in assay [1] (SDHI agent 3 ppm) and in assay [1] (SDHI agent 10 ppm) were 0%, 95% and 100%, respectively.
As for `CC(C)C1C2CCC1c1c(NC(=O)c3cn(C)nc3C(F)F)cccc12` (stereo not shown) [isopyrazam], the “Control effect Expected value (Colby)” value in assay [1] (setting [3]) amounted to 19%; in assay [1] (setting [4]) it was 36%; in assay [1] (setting [5]) it was 76%; in assay [1] (setting [6]), 81%; in assay [1] (setting [7]), 100%; in assay [1] (setting [8]) it was 100%. Besides, the “Control effect Combination” value in assay [1] (setting [3]) is reported as 60%; in assay [1] (setting [4]) it was 20%; in assay [1] (setting [5]), 85%; in assay [1] (setting [6]) it was 85%; in assay [1] (setting [7]) it was 100%; in assay [1] (setting [8]), 100%. The entries for the “Control effect SDHI alone” value in assay [1] (SDHI agent 1 ppm), in assay [1] (SDHI agent 3 ppm) and in assay [1] (SDHI agent 10 ppm) were 15%, 75% and 100%, respectively.
As to `O=C(Nc1ccccc1-c1ccc(Cl)cc1)c1cccnc1Cl` [boscalid], the “Control effect Expected value (Colby)” value in assay [1] (setting [3]) turned out to be 10%; in assay [1] (setting [4]), 29%; in assay [1] (setting [5]), 19%; in assay [1] (setting [6]), 36%; in assay [1] (setting [7]) it was 62%; in assay [1] (setting [8]), 70%. The “Control effect Combination” value is on record as 15% in assay [1] (setting [3]); 0% in assay [1] (setting [4]); 65% in assay [1] (setting [5]); 80% in assay [1] (setting [6]); 100% in assay [1] (setting [7]); 95% in assay [1] (setting [8]). Moreover, the “Control effect SDHI alone” value in assay [1] (SDHI agent 1 ppm) is 5%; in assay [1] (SDHI agent 3 ppm), 15%; in assay [1] (SDHI agent 10 ppm), 60%.
`O=C1C(Cl)=C(Cl)C(=O)N1c1ccc(F)cc1` [fluoroimide]: the “Controlling Effect as single agent” value in assay [1] (fluoroimide alone 50 ppm) was found to be 5%; in assay [1] (fluoroimide alone 100 ppm) it was 25%; in assay [2] (fluoroimide alone 50 ppm), 25%; in assay [2] (fluoroimide alone 100 ppm) it was 50%.
